Measured values as given in patent US5886025A, “Anti-mitotic agents which inhibit tubulin polymerization” (Baylor University, priority 1997, dated 1999).
In brackets after ≈: the same amount, converted by molar mass. Entries after “also recorded” stand apart in the source; their conditions may differ. Where a name gives a salt, the structure may show the parent alone. Read-outs that look alike come from different tables or passages of the source.

Key:
[1] = system: tubulin; test: tubulin polymerization assay; format: biochemical, bovine
Procedure: The ability of the various above described compounds to inhibit tubulin polymerization can be determined by in vitro assay. A suitable assay system is that described by Bai et al A method for purifying tubulin from bovine brain cells is described by Hamel and Lin.
IC50 values for tubulin polymerization were determined according to the procedure described in Bai et al. Purified tubulin is obtained from bovine brain cells as described in Hamel and Lin. Various amounts of inhibitor were preincubated for 15 minutes at 37° C. with purified tubulin. After the incubation period, the reaction was cooled and GTP was added to induce tubulin polymerization. Polymerization was then monitored in a Gilford spectrophotometer at 350 nm. The final reaction mixtures (0.25 ml) contained 1.5 mg/ml tubulin, 0.6 mg/ml microtubule-associated proteins (MAPs), 0.5 mM GTP, 0.5 mM MgCl2, 4% DMSO and 0.1M 4-morpholineethanesulfonate buffer (MES, pH 6.4).

[2] = system: P388 leukemia cells; test: cytotoxic assay with P388 leukemia cells; format: cell-based; details: for IC50: Mus musculus
Text: The tubulin polymerization compounds can also be tested for their ability to inhibit tumor cell growth.

[3] = system: tubulin; details: cited from earlier work
[4] = system: tubulin; details: cis or Z form vs trans or E; cited from earlier work
[5] = treatment of Chagas' disease, cited from earlier work
[6] = system: estrogen; details: cited from earlier work
[7] = relative to tamoxifen; cited from earlier work
[8] = P388, read-out: ED50 (effective dosage required to inhibit 50% of cell growth)

Row | SMILES | inhibition of tubulin polymerization [1] | activity against P388 leukemia cells ([2]; P388 leukemia cells) | IC50 [2, 8] | other results
1 | COc1ccc(-c2sc3cc(OC)ccc3c2C(=O)c2c(OC)cccc2OC)cc1 [2,6-dimethoxybenzoyl, 3-(2', 6'-dimethoxybenzoyl)-2-(4'-methoxyphenyl)-6-methoxybenzo[b]thiophene] | no observable tubulin polymerization inhibition activity; also recorded: failed to inhibit tubulin polymerization | failed to show measurable activity |  | IC50 ([2]; read-out: ED50 (effective dosage required to inhibit 50% of cell growth), P388 leukemia cells): > 100 µg/mL
2 | COc1cc2c(cc1O)CC[C@@H]1[C@@H]2CC[C@]2(C)[C@@H](O)CC[C@@H]12 [2-methoxyestradiol] |  |  |  | inhibition of tubulin polymerization [3]: viable inhibitor of tubulin polymerization
3 | COc1ccc(-c2sc3cc(OC)ccc3c2C(=O)c2cc(OC)c(O)c(OC)c2)cc1 [3,5-dimethoxy-4-hydroxybenzoyl] | no observable tubulin polymerization inhibition activity; also recorded: failed to inhibit tubulin polymerization | failed to show measurable activity | > 100 µg/mL | 
4 | COc1ccc(-c2sc3cc(OC)ccc3c2C(=O)c2cc(OC)cc(OC)c2)cc1 [3,5-dimethoxybenzoyl, 3-(3',5'-dimethoxybenzoyl)-2-(4'-methoxyphenyl)-6-methoxybenzo[b]thiophene] | no observable tubulin polymerization inhibition activity; also recorded: failed to inhibit tubulin polymerization | failed to show measurable activity | > 100 µg/mL | 
5 | COc1ccc(/C=C\c2cc(OC)c(OC)c(OC)c2)cc1N(Cc1ccccc1)Cc1ccccc1 [5-[(Z)-2-(3',4',5'-trimethoxyphenyl)ethenyl]-2-methoxy-N,N-bis-(phenylmethyl)aniline, reference compound] |  |  | 33.9 µg/mL (≈ 68.4 µM) | 
6 | COc1ccc(/C=C\c2cc(OC)c(OC)c(OC)c2)cc1O [Combretastatin A-4] |  |  |  | binding affinity for tubulin, cis (Z) form compared to trans (E) counterpart [4]: much higher binding affinity for tubulin
7 | O=C(Cn1ccnc1[N+](=O)[O-])NCc1ccccc1 [benznidazole] |  |  |  | genotoxicity in children [5]: may also cause genotoxicity in children; adverse effects [5]: thrombocytopenic purpura and polyneropathy
8 | CC1CS(=O)(=O)CCN1/N=C/c1ccc([N+](=O)[O-])o1 (stereo not drawn) [nifurtimox] |  |  |  | genotoxicity in children [5]: may also cause genotoxicity in children; adverse effects [5]: thrombocytopenic purpura and polyneropathy
9 | CC/C(=C(\c1ccccc1)c1ccc(OCCN(C)C)cc1)c1ccccc1 [tamoxifen] |  |  |  | intrinsic estrogen agonist properties [6]: retain some intrinsic estrogen agonist properties
10 | COc1ccc(C2=C(C(=O)c3ccc(OCCN4CCCC4)cc3)c3ccccc3CC2)cc1 [trioxifene mesylate] |  |  |  | anti-tumor effects compared with tamoxifen [7]: anti-tumor effects at the same or higher level as tamoxifen
